Assay [1] has as its system MAP2 promoter. Put plainly: Notch1 inhibition / HES1 knockdown, phMAP2-2 luciferase assay in 451Lu metastatic melanoma cells. Type of assay: cell-based, human. The following applies: DAPT 1 or 2 μM, 0.6 μg HES1shRNA. As to the method:
(§1) Transient transfection and luciferase assays: Transient transfections with various promoter constructs were performed using Lipofectamine (Invitrogen, Carlsbad, Calif.) according to the manufacturer's instructions. Cells in 24- or 6-well tissue culture dishes, in triplicates, were transfected with 0.6 or 3 μg, respectively, of empty vector pGL3 or promoter-reporter constructs (phMAP2-1, phMAP2-2, phMAP2-3 and phMAP2-4) and 0.07 or 0.5 μg Renilla luciferase plasmid pRL. In co-transfection experiments, different amounts of NeuroD and Hes1 expression plasmids were added. For Notch1 inhibition and HES1 knockdown experiments, cells were either pre-treated with indicated amount of γ-secretase inhibitor-DAPT (Calbiochem, La Jolla, Calif.) and/or transfected with indicated amount of lentiviral HES1shRNA plasmid (The RNAi Consortium collection, a library of short hairpin DNAs cloned in pLKO.1 lentiviral vector; Open biosystem, Huntsville, Ala.) 1 day before transfection with MAP2 promoter constructs. After 48 h of transfection, cells were washed with pre-chilled PBS and lysed in passive lysis buffer (Dual Luciferase kit, Promega). Firefly luciferase and Renilla luciferase activities in the cell lysates were measured according to the manufacturer's instructions using TD 20/20-luminometer (Turner Biosystems, Sunnyvale, Calif.). […]

For assay [2], the system named is MAP2 promoter. Put plainly: Notch1 inhibition / HES1 knockdown, phMAP2-2 luciferase assay in WM35 primary melanoma cells. The following applies: DAPT 1 or 2 μM, 0.6 μg HES1shRNA. The assay is classed as cell-based, human. As to the method: as §1

In the case of `C[C@H](NC(=O)Cc1cc(F)cc(F)c1)C(=O)N[C@H](C(=O)OC(C)(C)C)c1ccccc1` [DAPT], the figures for the “MAP2 promoter activity (phMAP2-2 luciferase)” value with MAP2 promoter [1] and in the assay with MAP2 promoter [2] were “not sufficient to activate MAP2 promoter” and “dose-dependent increase”, respectively.

The record behind these values is patent US20080299563A1, “HUMAN MAP2 GENE PROMOTER” (priority 2007, published 2008).
